Marks after values point to notes of the source that are not given here.
How the values were obtained:
[1] = Photostability Example: aqueous photolysis under xenon arc lamp simulating natural sunlight for 24 hours, percent remaining relative to dark controls; format: physicochemical; settings: 0.670 μg/mL in 80/20 10 mM pH 7 phosphate buffer/acetonitrile, xenon arc lamp 24 hours
Procedure: Aqueous photolysis data is a simple proxy for photostability under field conditions. The following aqueous photolysis data supports the enhanced photostability of the tolyl fungicides of the present invention.
Test compound (0.670 μg/mL) dissolved in 80/20 10 mM pH 7 phosphate buffer/acetonitrile is added to 2-mL borosilicate glass HPLC vials. The addition of 20% acetonitrile is intended to ensure solubility of compounds with low aqueous solubility. Samples are exposed to light in an Atlas Ci65 Burner photolysis chamber fitted with a xenon arc lamp (6500 W) to simulate natural sunlight for 24 hours and compared with samples wrapped in aluminum foil to protect them from light under the same conditions. The 24-hour irradiation is equivalent to ˜2.6 days of average Delaware summer sunlight exposure. Samples are analyzed by HPLC and results are reported as percent remaining based on peak area relative to the dark controls.

[2] = system: Erysiphe graminis f. sp. tritici; test: Test A: wheat powdery mildew, preventive spray on wheat seedlings, visual disease rating; format: in vivo; settings: 100 = 100% disease control; for pest or weed control at 200 ppm / pest or weed control at 40 ppm: Blumeria graminis, 192 h
Outline: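 Wheat seedlings sprayed to run-off with compound in acetone/water with 250 ppm Trem 014 (200 ppm ≈ 800 g/ha; some at 40 or 50 ppm), inoculated next day with spore dust. After 8 days at 20° C, disease control rated visually, 0–100% relative to controls.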

[3] = system: Puccinia recondita f sp. tritici; test: Test B: wheat leaf rust, preventive spray on wheat seedlings, visual disease rating; format: in vivo; settings: 100 = 100% disease control; for pest or weed control at 200 ppm / pest or weed control at 40 ppm: 192 h
Outline: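 Test suspension in acetone/water 50/50 with 250 ppm Trem® 014, sprayed to run-off on wheat seedlings at 200 ppm (≈800 g/ha), or 40 or 50 ppm where marked. Inoculated next day with spores, held 24 h saturated at 20° C, then 7 days at 20° C; disease control rated visually, 0–100 versus controls.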

Septoria tritici = test: Test C: wheat leaf blotch, preventive spray on wheat seedlings, visual disease rating; format: in vivo; settings: 100 = 100% disease control; for pest or weed control at 200 ppm / pest or weed control at 40 ppm: Zymoseptoria tritici, 504 h
Outline: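 Compounds in acetone (11% of final volume) suspended in acetone/water 50/50 with 250 ppm Trem® 014; 200 ppm (≈800 g/ha), some at 40 or 50 ppm, sprayed to run-off. Septoria tritici inoculated next day; 48 h saturated at 24° C., then 19 days at 20° C.; visual rating, 0–100% control vs untreated.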

Septoria nodorum = test: Test D: wheat glume blotch, preventive spray on wheat seedlings, visual disease rating; format: in vivo; settings: 100 = 100% disease control; for pest or weed control at 200 ppm / pest or weed control at 40 ppm: Parastagonospora nodorum, 216 h
Outline: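 Preventive test: wheat seedlings sprayed to run-off with compound suspension (acetone/water with 250 ppm Trem 014; 200 ppm, some at 40 or 50 ppm), inoculated with Septoria nodorum next day. Held 48 h saturated at 20° C, then 7 days at 20° C; visual rating 0-100% disease control versus controls.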

Botrytis cinerea = test: Test E: tomato botrytis, preventive spray on tomato seedlings, visual disease rating; format: in vivo; settings: 100 = 100% disease control; for pest or weed control at 200 ppm / pest or weed control at 40 ppm: Botrytis cinerea, 120 h
Outline: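 Compounds in acetone/water (50/50) with 250 ppm Trem 014, sprayed to run-off on tomato seedlings at 200 ppm (≈800 g/ha) unless marked 40 or 50 ppm. Inoculated next day with B. cinerea spores; 48 h saturated atmosphere at 20°C, then 3 days at 27°C; visual rating, 100 = full control vs controls.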

COC(=O)NCc1cc(-n2ccc(-c3ccc(OC)cc3C)n2)ccc1F [10PP]
% Cmpd Remaining [1]: 64%

COC(=O)NCc1cc(-n2ccc(-c3ccc(OC)cc3C)n2)ccc1Cl [10P]
% Cmpd Remaining [1]: 0%

COC(=O)NCc1cc(-n2ncc(-c3ccc(OC)cc3OC)n2)ccc1Cl [17P]
% Cmpd Remaining [1]: 0%

COC(=O)NCc1cc(-c2ccn(-c3ccc(OC)cc3C)n2)ccc1Cl [18P]
% Cmpd Remaining [1]: 0%

COC(=O)NCc1cc(-n2ccc(-c3ccc(OC)cc3OC)n2)ccc1F [23PP]
% Cmpd Remaining [1]: 5%

COC(=O)NCc1cc(-n2ccc(-c3ccc(OC)cc3OC)n2)ccc1Cl [23P]
% Cmpd Remaining [1]: 0%

COC(=O)NCc1cc(-c2ccn(-c3ccc(OC)cc3OC)n2)ccc1Cl [24P]
% Cmpd Remaining [1]: 0%

COC(=O)NCc1cc(-n2ccc(-c3ccc(OC)cc3C)n2)ccc1C [Compound 10, methyl N-[[5-[3-(4-methoxy-2-methylphenyl)-1H-pyrazol-1-yl]-2-methylphenyl]-methyl]carbamate]
% Cmpd Remaining [1]: 97% | pest or weed control at 200 ppm ([2]; 200 ppm): 100% | pest or weed control at 200 ppm ([3]; 200 ppm): 100% | pest or weed control at 200 ppm (Septoria tritici; 200 ppm): 100% | pest or weed control at 200 ppm (Septoria nodorum; 200 ppm): 100% | pest or weed control at 200 ppm (Botrytis cinerea; 200 ppm): 97% | melting point: 97 to 99 °C

COC(=O)NCc1cc(-n2ccc(-c3ccc(Cl)cc3OC)n2)ccc1C [Compound 11, methyl N-[[5-[3-(4-chloro-2-methoxyphenyl)-1H-pyrazol-1-yl]-2-methylphenyl]-methyl]carbamate]
pest or weed control at 200 ppm ([2]; 200 ppm): 100% | pest or weed control at 200 ppm ([3]; 200 ppm): 100% | pest or weed control at 200 ppm (Septoria tritici; 200 ppm): 100% | pest or weed control at 200 ppm (Septoria nodorum; 200 ppm): 100% | pest or weed control at 200 ppm (Botrytis cinerea; 200 ppm): 56% | melting point: 126 to 127 °C

COC(=O)NCc1cc(-c2ccn(-c3ccc(OC)cc3C)n2)ccc1C [Compound 18, methyl N-[[5-[1-(4-methoxy-2-methylphenyl)-1H-pyrazol-3-yl]-2-methylphenyl]methyl]carbamate]
% Cmpd Remaining [1]: 98% | pest or weed control at 200 ppm ([2]; 200 ppm): 100% | pest or weed control at 200 ppm ([3]; 200 ppm): 100% | pest or weed control at 200 ppm (Septoria tritici; 200 ppm): 100% | pest or weed control at 200 ppm (Botrytis cinerea; 200 ppm): 44% | melting point: 117 to 120 °C

COC(=O)NCc1cc(-n2ccc(-c3ccc(OC)cc3OC)n2)ccc1C [Compound 23, methyl N-[[5-[3-(2,4-dimethoxyphenyl)-1H-pyrazol-1-yl]-2-methylphenyl]methyl]carbamate]
% Cmpd Remaining [1]: 54% | pest or weed control at 200 ppm ([2]; 200 ppm): 100% | pest or weed control at 200 ppm ([3]; 200 ppm): 100% | pest or weed control at 200 ppm (Septoria tritici; 200 ppm): 100% | pest or weed control at 200 ppm (Septoria nodorum; 200 ppm): 100% | pest or weed control at 200 ppm (Botrytis cinerea; 200 ppm): 66%

COC(=O)NCc1cc(-n2ccc(-c3ccc(Cl)cc3Cl)n2)ccc1C [Compound 31, methyl N-[[5-[3-(2,4-dichlorophenyl)-1H-pyrazol-1-yl]-2-methylphenyl]-methyl]carbamate]
pest or weed control at 200 ppm ([2]; 200 ppm): 100% | pest or weed control at 200 ppm ([3]; 200 ppm): 100% | pest or weed control at 200 ppm (Septoria tritici; 200 ppm): 100% | pest or weed control at 200 ppm (Septoria nodorum; 200 ppm): 100% | pest or weed control at 200 ppm (Botrytis cinerea; 200 ppm): 16% | melting point: 101 to 103 °C

COC(=O)NCc1cc(-c2ncn(-c3ccc(OC)cc3OC)n2)ccc1C [Compound 54]
pest or weed control at 40 ppm ([2]; 40 ppm (*)): 99% | pest or weed control at 40 ppm ([3]; 40 ppm (*)): 100% | pest or weed control at 40 ppm (Septoria tritici; 40 ppm (*)): 49% | pest or weed control at 40 ppm (Septoria nodorum; 40 ppm (*)): 100% | pest or weed control at 40 ppm (Botrytis cinerea; 40 ppm (*)): 49% | melting point: 174 to 177 °C

COC(=O)NCc1cc(-c2ncn(-c3ccc(OC)cc3C)n2)ccc1C [Compound 70, methyl N-[[5-[1-(4-methoxy-2-methylphenyl)-1H-1,2,4-triazol-3-yl]-2-methylphenyl]methyl]carbamate]
pest or weed control at 40 ppm ([2]; 40 ppm (*)): 99% | pest or weed control at 40 ppm ([3]; 40 ppm (*)): 100% | pest or weed control at 40 ppm (Septoria tritici; 40 ppm (*)): 96% | pest or weed control at 40 ppm (Septoria nodorum; 40 ppm (*)): 100% | pest or weed control at 40 ppm (Botrytis cinerea; 40 ppm (*)): 84%

COC(=O)NCc1cc(-c2ncn(-c3ccc(OC)cc3Cl)n2)ccc1C [Compound 78]
pest or weed control at 40 ppm ([2]; 40 ppm (*)): 99% | pest or weed control at 40 ppm ([3]; 40 ppm (*)): 100% | pest or weed control at 40 ppm (Septoria tritici; 40 ppm (*)): 93% | pest or weed control at 40 ppm (Septoria nodorum; 40 ppm (*)): 100% | pest or weed control at 40 ppm (Botrytis cinerea; 40 ppm (*)): 68% | melting point: 145 to 148 °C

COC(=O)NCc1cc(-c2ncn(-c3ccc(OC)cc3F)n2)ccc1C [Compound 79]
pest or weed control at 40 ppm ([2]; 40 ppm (*)): 100% | pest or weed control at 40 ppm ([3]; 40 ppm (*)): 100% | pest or weed control at 40 ppm (Septoria tritici; 40 ppm (*)): 95% | pest or weed control at 40 ppm (Septoria nodorum; 40 ppm (*)): 100% | pest or weed control at 40 ppm (Botrytis cinerea; 40 ppm (*)): 76% | melting point: 164 to 166 °C

COC(=O)NCc1cc(-n2ncc(-c3ccc(I)cc3OC)[n+]2[O-])ccc1C [Compound 81]
pest or weed control at 200 ppm ([2]; 200 ppm): 99% | pest or weed control at 200 ppm ([3]; 200 ppm): 100% | pest or weed control at 200 ppm (Septoria tritici; 200 ppm): 98% | pest or weed control at 200 ppm (Septoria nodorum; 200 ppm): 100% | pest or weed control at 200 ppm (Botrytis cinerea; 200 ppm): 67%

COC(=O)NCc1cc(-c2ncn(-c3ccc(F)cc3F)n2)ccc1C [Compound 117]
pest or weed control at 200 ppm ([2]; 200 ppm): 100% | pest or weed control at 200 ppm ([3]; 200 ppm): 100% | melting point: 156 to 159 °C

COC(=O)NCc1cc(-c2ncn(-c3ccc(C)cc3C)n2)ccc1C [Compound 118, methyl N-[[5-[1-(2,4-dimethylphenyl)-1H-1,2,4-triazol-3-yl]-2-methylphenyl]methyl]carbamate]
pest or weed control at 200 ppm ([2]; 200 ppm): 99% | pest or weed control at 200 ppm ([3]; 200 ppm): 100% | melting point: 148 to 151 °C

COC(=O)NCc1cc(-c2ncn(-c3ccc(Cl)cc3Cl)n2)ccc1C [Compound 119]
pest or weed control at 200 ppm ([2]; 200 ppm): 99% | pest or weed control at 200 ppm ([3]; 200 ppm): 100% | melting point: 152 to 155 °C

COC(=O)NCc1cc(-c2ccn(-c3ccc(OC)cc3OC)n2)ccc1C [compound 24]
% Cmpd Remaining [1]: 78% | Test A disease control rating ([2]; 200 ppm): 100% | Test B disease control rating ([3]; 200 ppm): 100% | Test C disease control rating (Septoria tritici; 200 ppm): 100% | Test E disease control rating (Botrytis cinerea; 200 ppm): 55%

methyl N-[[5-[1-(2,4-dimethylphenyl)-1H-pyrazol-3-yl]-2-methylphenyl]-methyl]carbamate [Compound 66]
Test A disease control rating ([2]; 40 ppm (*)): 100* % | Test B disease control rating ([3]; 40 ppm (*)): 100* % | Test C disease control rating (Septoria tritici; 40 ppm (*)): 96* % | Test D disease control rating (Septoria nodorum; 40 ppm (*)): 100* % | Test E disease control rating (Botrytis cinerea; 40 ppm (*)): 99* %

methyl N-[[5-[1-(4-methoxy-2-methylphenyl)-1H-1,2,4-triazol-3-yl]-2-methylphenyl]methyl]carbamate [Compound 70]
Test A disease control rating ([2]; 200 ppm): 100% | Test B disease control rating ([3]; 200 ppm): 100% | Test C disease control rating (Septoria tritici; 200 ppm): 100% | Test D disease control rating (Septoria nodorum; 200 ppm): 100% | Test E disease control rating (Botrytis cinerea; 200 ppm): 0%

methyl N-[[5-[3-(2,4-dimethoxyphenyl)-1H-pyrazol-1-yl]-2-methylphenyl]methyl]carbamate [Compound 23]
Test A disease control rating ([2]; 200 ppm): 99% | Test B disease control rating ([3]; 200 ppm): 100% | Test C disease control rating (Septoria tritici; 200 ppm): 100% | Test D disease control rating (Septoria nodorum; 200 ppm): 100% | Test E disease control rating (Botrytis cinerea; 200 ppm): 56%

methyl N-[[5-[3-(2,6-dimethoxy-3-pyridinyl)-1H-pyrazol-1-yl]-2-methylphenyl]-methyl]carbamate [Compound 46]
Test A disease control rating ([2]; 40 ppm (*)): 98* % | Test B disease control rating ([3]; 40 ppm (*)): 100* % | Test C disease control rating (Septoria tritici; 40 ppm (*)): 98* % | Test D disease control rating (Septoria nodorum; 40 ppm (*)): 100* % | Test E disease control rating (Botrytis cinerea; 40 ppm (*)): 92* %

methyl N-[[5-[4-(2,4-dimethylphenyl)-2H-1,2,3-triazol-2-yl]-2-methylphenyl]-methyl]carbamate [Compound 91]
Test A disease control rating ([2]; 40 ppm (*)): 100* % | Test B disease control rating ([3]; 40 ppm (*)): 100* % | Test C disease control rating (Septoria tritici; 40 ppm (*)): 92* % | Test D disease control rating (Septoria nodorum; 40 ppm (*)): 100* % | Test E disease control rating (Botrytis cinerea; 40 ppm (*)): 33* %

Reference: patent publication US20150266850A1 (E.I.DU PONT DE NEMOURS AND COMPANY, priority 2012, published 2015)
